# Test results taken from patent US20050233470A1, “Methods and compound mixtures for determining protein activity using nmr spectroscopy” (priority 2002, published 2005).
# Details: rat, in vivo
# Protocol: Urine samples were collected immediately before administration and then at 1 h and 2.5 h after administration. […] Blood samples were collected immediately before administration and then at 1, 2 and 3 h after administration. After collection, blood samples were spun down at 2000 rpm for 10 min. and the plasma was collected. Both, plasma and urine samples were frozen at −20° C.
# Aliquots of the stock solution ([…]) were mixed with 40 μl biofluid (urine or blood plasma) to give a 15 mM trityl radical solution. These solutions were dispensed as droplets into liquid nitrogen to provide the material as vitrified pellets suitable for hyperpolarisation. The solid samples were placed in turn within the DNP magnet and hyperpolarised overnight. The samples were dissolved by injection of a mixture of methanol and acetic acid (100:1). The dissolved samples were quickly manually transferred (approx. 4 s transfer time) to a high-resolution magnet of 9.4 T and single acquisition ^13C-1D-NMR-spectra were acquired.
# Quantification of the unknown amount of probe compound/metabolites in the biofluid samples was based on these enhancements and the known amount of probe compound/metabolite used to generate them. […]
compound,measurement,value
N=[13C](N)N1CCc2ccccc2C1 [Debrisoquine],Signals present in NMR spectrum of urine sample,present
"N=C(N)N1Cc2ccccc2C(O)C1 (centres unmarked) [4-OH-Debrisoquine, 4-hydroxy-debrisoquine]",Signals present in NMR spectrum of urine sample,present
